Source: PMC12165416, “HarmGR13 mediates myo-inositol taste perception in Helicoverpa armigera larvae” (PLOS Genetics, 2025)

How the values were obtained:
Assay in all cases: two-electrode voltage clamp, Xenopus oocytes, inward current
Assay type in all cases: cell-based
[1] = molecular target: T1, HarmGR13 (Helicoverpa armigera, UniProt Z9NT97MFL8, D92A); details: Ringer's solution pH 7.6, -80 mV; 100 mM inositol
T1 construct: full-length, 436 aa; cDNA from larval maxillary galea; pCS2+ cRNA injected into Xenopus laevis oocytes; expressed alone
T1 sequence (Z9NT97MFL8 1-436 D92A): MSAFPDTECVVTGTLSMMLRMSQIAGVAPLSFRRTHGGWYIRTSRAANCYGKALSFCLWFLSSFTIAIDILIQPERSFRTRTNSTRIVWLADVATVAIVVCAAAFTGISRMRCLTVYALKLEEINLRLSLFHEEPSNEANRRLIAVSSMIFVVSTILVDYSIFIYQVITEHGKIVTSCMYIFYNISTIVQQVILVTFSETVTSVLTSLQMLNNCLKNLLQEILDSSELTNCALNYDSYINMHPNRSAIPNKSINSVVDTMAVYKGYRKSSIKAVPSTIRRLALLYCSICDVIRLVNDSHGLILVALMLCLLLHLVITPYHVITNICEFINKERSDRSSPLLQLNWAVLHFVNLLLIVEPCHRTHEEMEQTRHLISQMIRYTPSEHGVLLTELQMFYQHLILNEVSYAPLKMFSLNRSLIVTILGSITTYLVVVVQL

[2] = molecular target: T2, HarmGR13 (Helicoverpa armigera, UniProt Z9NT97MFL8); details: Ringer's solution pH 7.6, -80 mV; agonist; dose-response curve in Fig 5B, EC50 not given
T2 construct: full-length, 436 aa; cDNA from larval maxillary galea; pCS2+ cRNA injected into Xenopus laevis oocytes; expressed alone
T2 sequence (Z9NT97MFL8 1-436): T1 sequence (Z9NT97MFL8 1-436 D92A)

[3] = molecular target: T3, HarmGR13 (Helicoverpa armigera, UniProt Z9NT97MFL8, D159A); details: Ringer's solution pH 7.6, -80 mV; 100 mM inositol
T3 construct: full-length, 436 aa; cDNA from larval maxillary galea; pCS2+ cRNA injected into Xenopus laevis oocytes; expressed alone
T3 sequence (Z9NT97MFL8 1-436 D159A): T1 sequence (Z9NT97MFL8 1-436 D92A)

[4] = molecular target: T3, HarmGR13; details: Ringer's solution pH 7.6, -80 mV; 500 mM ribose
[5] = molecular target: T1, HarmGR13; details: Ringer's solution pH 7.6, -80 mV; 500 mM ribose

SMILES | inward current at 100 mM [1] | threshold concentration [2] [mM] | inward current at 100 mM [3] | inward current at 500 mM [4] | inward current at 500 mM [5]
O[C@H]1[C@H](O)[C@@H](O)[C@H](O)[C@@H](O)[C@H]1O [myo-inositol] | each of three mutated HarmGR13 did not show any inward currents | 1 | each of three mutated HarmGR13 did not show any inward currents |  | 
OC1OC[C@@H](O)[C@@H](O)[C@H]1O (stereo partly drawn) [ribose] |  | 10 |  | each of three mutated HarmGR13 did not show any inward currents | each of three mutated HarmGR13 did not show any inward currents
